Measured values taken from PubChem BioAssay AID248 (DTP/NCI, 2004).
Where “and” joins values, the source holds several entries; their conditions need not be identical. Equal values may be shown once. Inconclusive results and toxic doses are left out. No stated cut-off is given here; in the data, active means T/C of 150% or more; inactive means T/C below 125%.

Tested on: L1210 leukemia ip in BDF1 mice, survival T/C
Assay: NCI In Vivo Anticancer Drug Screen. Data for tumor model L1210 Leukemia (intraperitoneal) in B6D2F1 (BDF1) mice
Conditions: endpoint: mean survival time, higher = longer survival
Summary of the method: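 In this screen, tumor-bearing mice given compound are compared to those given vehicle, and their survival values are reported as a treated-to-control quotient.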

[1] = dose: 50.0 mg/kg/injection, schedule: Q01DX001 (ip), vehicle: carboxymethylcellulose (CMC)
[2] = dose: 100.0 mg/kg/injection, schedule: Q01DX001 (ip), vehicle: carboxymethylcellulose (CMC)
[3] = dose: 200.0 mg/kg/injection, schedule: Q01DX001 (ip), vehicle: carboxymethylcellulose (CMC)
[4] = dose: 400.0 mg/kg/injection, schedule: Q01DX001 (ip), vehicle: carboxymethylcellulose (CMC)
[5] = dose: 100.0 mg/kg/injection, schedule: Q04DX002 (ip), vehicle: Klucel (hydroxypropylcellulose) (HPC)
[6] = dose: 200.0 mg/kg/injection, schedule: Q04DX002 (ip), vehicle: Klucel (hydroxypropylcellulose) (HPC)
[7] = dose: 400.0 mg/kg/injection, schedule: Q04DX002 (ip), vehicle: Klucel (hydroxypropylcellulose) (HPC)
[8] = dose: 100.0 mg/kg/injection, schedule: Q04DX003 (ip), vehicle: saline with Tween-80
[9] = dose: 200.0 mg/kg/injection, schedule: Q04DX003 (ip), vehicle: saline with Tween-80
[10] = dose: 400.0 mg/kg/injection, schedule: Q04DX003 (ip), vehicle: saline with Tween-80
[11] = dose: 100.0 mg/kg/injection, schedule: Q01DX001 (ip), vehicle: saline
[12] = dose: 200.0 mg/kg/injection, schedule: Q01DX001 (ip), vehicle: saline
[13] = dose: 400.0 mg/kg/injection, schedule: Q01DX001 (ip), vehicle: saline
[14] = dose: 100.0 mg/kg/injection, schedule: Q04DX002 (ip), vehicle: saline with Tween-80

Measured: T/C

O=C(NC(c1ccccc1)C(O)c1ccccc1)c1ccc([N+](=O)[O-])cc1 (stereo not given)
inactive: [1] 96 % of control | [2] 93 % of control | dose: 100.0 mg/kg/injection, schedule: Q04DX003 (ip), vehicle: acetone 109 % of control | [3] 93 % of control | dose: 200.0 mg/kg/injection, schedule: Q04DX003 (ip), vehicle: acetone 96 % of control | [4] 87 % of control | dose: 400.0 mg/kg/injection, schedule: Q04DX003 (ip), vehicle: acetone 103 % of control

OC(OC/C(I)=C(/I)COC(O)C(Cl)(Cl)Cl)C(Cl)(Cl)Cl (stereo not given)
inactive: dose: 100.0 mg/kg/injection, schedule: Q01DX009 (ip), vehicle: other 103 % of control | dose: 100.0 mg/kg/injection, schedule: Q04DX003 (ip), vehicle: other 103 % of control | dose: 200.0 mg/kg/injection, schedule: Q01DX009 (ip), vehicle: other 92 % of control | dose: 200.0 mg/kg/injection, schedule: Q04DX003 (ip), vehicle: other 100 % of control | dose: 400.0 mg/kg/injection, schedule: Q04DX003 (ip), vehicle: other 97 % of control

Cc1ccc(C(O)c2nnc(C(O)c3ccc(C)cc3)nn2)cc1 (stereo not given)
inactive: [5] 88 % of control and 107 % of control and 100 % of control | [6] 100 % of control and 96 % of control | [7] 96 % of control and 100 % of control

CC(C)(C)C1CCC2OC(C)(C(C)(C)C)CC(C(C)(C)C)C2C1 (stereo not given)
inactive: dose: 100.0 mg/kg/injection, schedule: Q01DX001 (ip), vehicle: saline with Tween-80 100 % of control | dose: 200.0 mg/kg/injection, schedule: Q01DX001 (ip), vehicle: saline with Tween-80 100 % of control | dose: 400.0 mg/kg/injection, schedule: Q01DX001 (ip), vehicle: saline with Tween-80 95 % of control

COc1ccccc1-n1c(C)nc2c1C(=O)c1ccccc1C2=O
inactive: [8] 96 % of control | [9] 93 % of control | [10] 96 % of control

COCC1OC(Nc2ccccc2)C(OC)C(OC)C1OC (stereo not given)
inactive: [8] 89 % of control | [9] 94 % of control | [10] 89 % of control

O=C(Nc1ccc([N+](=O)[O-])cc1)N(c1cc(Cl)ccn1)C1CCCCC1
inactive: [11] 96 % of control | [12] 90 % of control | [13] 96 % of control

COc1ccc(NC(C)=O)cc1
inactive: dose: 100.0 mg/kg/injection, schedule: Q01DX001 (ip), vehicle: Klucel (hydroxypropylcellulose) (HPC) 107 % of control | dose: 200.0 mg/kg/injection, schedule: Q01DX001 (ip), vehicle: Klucel (hydroxypropylcellulose) (HPC) 100 % of control | dose: 400.0 mg/kg/injection, schedule: Q01DX001 (ip), vehicle: Klucel (hydroxypropylcellulose) (HPC) 103 % of control

O=[N+]([O-])c1ccc(/C=C\c2ccccc2)cc1
inactive: dose: 100.0 mg/kg/injection, schedule: Q01DX009 (ip), vehicle: Klucel (hydroxypropylcellulose) (HPC) 95 % of control | dose: 100.0 mg/kg/injection, schedule: Q04DX003 (ip), vehicle: Klucel (hydroxypropylcellulose) (HPC) 98 % of control | dose: 200.0 mg/kg/injection, schedule: Q01DX009 (ip), vehicle: Klucel (hydroxypropylcellulose) (HPC) 97 % of control | dose: 200.0 mg/kg/injection, schedule: Q04DX003 (ip), vehicle: Klucel (hydroxypropylcellulose) (HPC) 98 % of control | dose: 400.0 mg/kg/injection, schedule: Q01DX009 (ip), vehicle: Klucel (hydroxypropylcellulose) (HPC) 96 % of control | dose: 400.0 mg/kg/injection, schedule: Q04DX003 (ip), vehicle: Klucel (hydroxypropylcellulose) (HPC) 96 % of control

O=C(O)CCS
inactive: dose: 50.0 mg/kg/injection, schedule: Q01DX001 (ip), vehicle: saline 98 % of control

O=C(Nc1ccccc1)Nc1cccc2ccccc12
inactive: dose: 100.0 mg/kg/injection, schedule: Q04DX002 (ip), vehicle: gum acacia 102 % of control | dose: 200.0 mg/kg/injection, schedule: Q04DX002 (ip), vehicle: gum acacia 94 % of control | dose: 400.0 mg/kg/injection, schedule: Q04DX002 (ip), vehicle: gum acacia 94 % of control

O=C(CSc1cc(Cl)ccc1Cl)Nc1ccc(Cl)cc1Cl
inactive: dose: 100.0 mg/kg/injection, schedule: Q04DX003 (ip), vehicle: carboxymethylcellulose (CMC) 92 % of control | dose: 200.0 mg/kg/injection, schedule: Q04DX003 (ip), vehicle: carboxymethylcellulose (CMC) 95 % of control

CCOC(=O)CCCCCCCCCCNC(=O)NCc1ccccc1
inactive: [14] 90 % of control | dose: 200.0 mg/kg/injection, schedule: Q04DX002 (ip), vehicle: saline with Tween-80 87 % of control | dose: 400.0 mg/kg/injection, schedule: Q04DX002 (ip), vehicle: saline with Tween-80 97 % of control

Cc1cnc(N[N+](=O)[O-])nc1-c1ccccc1O
inactive: [5] 96 % of control | [6] 108 % of control | [7] 105 % of control

O=C1C(c2ccccc2)=c2c(c3ccccc3c3ccccc23)=C1c1ccccc1
inactive: [1] 103 % of control and 100 % of control | [2] 100 % of control and 97 % of control | dose: 100.0 mg/kg/injection, schedule: Q01DX009 (ip), vehicle: saline with Tween-80 96 % of control | [3] 100 % of control and 97 % of control | dose: 200.0 mg/kg/injection, schedule: Q01DX009 (ip), vehicle: saline with Tween-80 90 % of control | [4] 94 % of control | dose: 400.0 mg/kg/injection, schedule: Q01DX009 (ip), vehicle: saline with Tween-80 93 % of control

O=C(CCCc1ccc(N(CCCl)CCCl)cc1)Nc1ccc(F)cc1
inactive: dose: 4.0 mg/kg/injection, schedule: Q12HX018 (ip), vehicle: other 103 % of control | dose: 6.0 mg/kg/injection, schedule: Q12HX018 (ip), vehicle: other 106 % of control | dose: 8.0 mg/kg/injection, schedule: Q12HX018 (ip), vehicle: other 104 % of control

CC1(C)CCC2=C1CC[C@H]1[C@H]2CCC2=CC(=O)CC[C@@]21C
inactive: dose: 50.0 mg/kg/injection, schedule: Q01DX001 (sc), vehicle: steriod suspending solution 102 % of control | dose: 100.0 mg/kg/injection, schedule: Q01DX001 (sc), vehicle: steriod suspending solution 96 % of control | dose: 200.0 mg/kg/injection, schedule: Q01DX001 (sc), vehicle: steriod suspending solution 102 % of control | dose: 400.0 mg/kg/injection, schedule: Q01DX001 (sc), vehicle: steriod suspending solution 102 % of control

Nc1ccccc1C(=O)N/N=C/c1cccc(O)c1
inactive: [5] 98 % of control | [6] 103 % of control | [7] 113 % of control

CC(C)Cc1ncc(CCCN=C(N)N)[nH]c1=O
inactive: dose: 12.5 mg/kg/injection, schedule: Q04DX002 (ip), vehicle: saline with Tween-80 106 % of control | dose: 25.0 mg/kg/injection, schedule: Q04DX002 (ip), vehicle: saline with Tween-80 98 % of control | dose: 50.0 mg/kg/injection, schedule: Q04DX002 (ip), vehicle: saline with Tween-80 95 % of control | [14] 103 % of control

Nc1cc2c3c(cccc3c1Br)C(=O)OC2=O
inactive: [5] 97 % of control | [6] 108 % of control

CNc1ccn(C2CCCO2)c(=O)n1 (stereo not given)
inactive: [11] 104 % of control | [12] 104 % of control | [13] 104 % of control

O=c1ccnc([Se])[nH]1
inactive: dose: 12.5 mg/kg/injection, schedule: Q04DX003 (ip), vehicle: saline with Tween-80 99 % of control | dose: 25.0 mg/kg/injection, schedule: Q04DX003 (ip), vehicle: saline with Tween-80 105 % of control | dose: 50.0 mg/kg/injection, schedule: Q04DX003 (ip), vehicle: saline with Tween-80 101 % of control | [8] 92 % of control | [9] 111 % of control | [10] 101 % of control
